Measurements taken from patent US20030055065A1, “Tricyclic amide and urea compounds useful for inhibition of G-protein function and for treatment of proliferative diseases” (priority 1993, published 2003).
Several values for one entry are separate records, joined by “and”; a condition that tells them apart may be missing. Identical values can stand only once. Like-named read-outs stand apart in the source and are kept apart here.

What was measured:
[1] = test system: Ras-CVLS processing in COS monkey kidney cells; test: COS cell assay: Ras-CVLS processing (Western blot); type: cell-based; details: COS cells, read-out: Inhibition of Ras Processing IC50
Description: 2. […] Effect of farnesyl protein transferase inhibitors on Ras processing and on disordered cell growth induced by transforming Ras. COS monkey kidney cells were transfected by electroporation with the plasmid pSV-SPORT (Gibco/BRL) containing a cDNA insert encoding either Ras-CVLS or Ras-CVLL, leading to transient overexpression of a Ras substrate for either farnesyl protein transferase or geranylgeranyl protein transferase I, respectively (see above). […] After 24 hours, media was removed and fresh media containing the appropriate drugs was re-added. 48 hours after electroporation cells were examined under the microscope to monitor disordered cell growth induced by transforming Ras. Cells expressing transforming Ras become more rounded and refractile and overgrow the monolayer, reminiscent of the transformed phenotype. […] Cells were lysed by homogenization and cell debris was removed by centrifugation at 2000×g for 10 min. Cellular protein was precipitated by addition of ice-cold trichloroacetic acid and redissolved in 100 μl of SDS-electrophoresis sample buffer. […] Proteins resolved on the gels were electroblotted onto nitrocellulose membranes for immunodetection. […] E., et al., (1982), Monoclonal antibodies to the p21 products of the transforming gene of Harvey murine sarcome virus and of the cellular ras gene family, J. Virol. 43: 294-304), in PBS containing 1% fetal calf serum for one hour at room temperature. After washing, membranes were incubated for one hour at room temperature with a 1:5000 dilution of secondary antibody, rabbit anti-rat IgG conjugated to horseradish peroxidase, in PBS containing 1% fetal calf serum.

[2] = test system: T24-BAG4 human bladder carcinoma cells expressing an activated H-ras gene; test: Cell Mat Assay: tumor cell colony inhibition (tIC50); type: cell-based; details: inhibition of tumor cell growth
Summary of the method: (§1)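 Serial compound dilutions added 24 h after planting T24-BAG4 cells onto a mat of normal cells, then 14 d colony growth; monolayers glutaraldehyde-fixed and tumor cells X-Gal stained. tIC50 and mIC50 from microscope counts of colonies, cells per colony and mat cell density.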

[3] = test system: Normal human HEPM fibroblasts; test: Cell Mat Assay: density of mat cells (mIC50); type: cell-based
Summary of the method: as §1

[4] = biological target: T1, farnesyl protein transferase (FPT), partially purified from rat brain (Rattus norvegicus, UniProt Q02293+Q04631); test: Inhibition of farnesyl protein transferase (transfer of [3H]farnesyl to Ras-CVLS); type: biochemical
T1 construct: were partially purified from rat brain by ammonium sulfate fractionation followed by Q-Sepharose
T1 sequence (Q02293 whole entry, one chain of several): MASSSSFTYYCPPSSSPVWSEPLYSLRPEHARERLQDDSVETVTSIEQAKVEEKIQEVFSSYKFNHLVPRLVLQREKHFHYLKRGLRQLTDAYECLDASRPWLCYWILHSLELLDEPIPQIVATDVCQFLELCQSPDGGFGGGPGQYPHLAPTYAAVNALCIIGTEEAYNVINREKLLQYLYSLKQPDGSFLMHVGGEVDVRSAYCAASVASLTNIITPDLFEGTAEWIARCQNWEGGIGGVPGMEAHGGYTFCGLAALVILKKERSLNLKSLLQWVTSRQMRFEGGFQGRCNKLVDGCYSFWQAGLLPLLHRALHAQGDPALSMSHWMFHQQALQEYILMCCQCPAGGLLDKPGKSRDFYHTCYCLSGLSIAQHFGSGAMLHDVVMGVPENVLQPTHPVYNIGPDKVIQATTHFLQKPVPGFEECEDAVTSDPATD
Summary of the method: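 Partially purified farnesyl protein transferase with His6-tagged val12-Ha-Ras-CVLS substrate and [3H]farnesyl pyrophosphate, 30 min at room temperature. Stopped with SDS/TCA, precipitated Ras collected on GF/C filters; percent inhibition relative to DMSO vehicle control.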

[5] = Ras-CVLS farnesylation, partially purified rat brain FPT, read-out: FPT IC50

SMILES	IC50 ([1]; Primates, COS)	IC50 ([2]; Homo sapiens)	IC50 ([3]; Homo sapiens, Fibroblast)	IC50 [4, 5]	IC50 [2]	IC50 [1]	IC50 [3]	IC50 ([4]; FPT IC50, Ras-CVLS farnesylation, partially purified rat brain FPT)	IC50 ([1]; listed as 266 (5.138))	IC50 ([1]; listed as 285 (5.153))	IC50 ([4]; enzyme inhibition, read-out: FPT IC50)
O=C(Cc1ccncc1)N1CCC(=C2c3ccc(Br)cc3CCc3cccnc32)CC1 [181 (5.48)]	1.1 µM	< 3.1 µM	> 50 µM								
O=C(Nc1cccnc1)N1CCN(C2c3ccc(Cl)cc3CCc3cccnc32)CC1 (stereo not drawn) [187 (6.7)]	4.8 µM	37 µM	> 50 µM	1.34 µM	25 µM						
O=C(Nc1cccnc1)N1CCN([C@H]2c3ccc(Cl)cc3CCc3cccnc32)CC1 [224 (6.11)]	7.3 µM	37 µM	> 50 µM	0.46 µM							
CC(=O)N1CCC(CC(=O)N2CCN([C@H]3c4ccc(Cl)cc4CCc4cccnc43)CC2)CC1 [225 (5.99)]	6.2 µM	12.5 µM	> 50 µM	1.6 µM							
CC(=O)N1CCC(C(=O)N2CCN([C@H]3c4ccc(Cl)cc4CCc4cccnc43)CC2)CC1 [226 (5.101)]	6.5 µM	12.5 µM	> 50 µM	1.8 µM							
O=C(Cc1ccncc1)N1CCC(=C2c3ccc(Cl)cc3CCc3ccc[n+]([O-])c32)CC1 [230 (5.105)]					37 µM	> 20 µM	> 50 µM				
O=C(Cc1ccncc1)N1CCC(=C2c3ccc(Cl)cc3CCc3c(Cl)ccnc32)CC1 [248 (5.123)]				0.19 µM	18 µM	4.6 µM	> 50 µM				
O=C(Cc1ccncc1)N1CCC(=C2c3ccc(Cl)cc3CCc3ccc(Cl)nc32)CC1 [248 (5.124)]	2.05 µM	18 µM	> 50 µM	1.2 µM							
CC(C)(C)C(=O)N1CCC(=C2c3ccc(Cl)cc3CCc3cccnc32)CC1 [Example 53]				1.5 µM	25 µM	> 13 µM	> 50 µM				
O=C(Cc1ccncc1)N1CCC(C2c3ccc(Cl)cc3CCc3cccnc32)CC1 (stereo not drawn) [Example 82, 4-(8-chloro-6,11-dihydro-5H-benzo-[5,6]cyclohepta[1,2-b]pyridin-11-yl)-1-[(4-pyridinyl)acetyl]-piperidine]	1.2 µM	3.1 µM	40 µM	0.16 µM and 0.36 µM							
O=C(Cc1ccncc1)N1CCC(=C2c3ccccc3CCc3ccccc32)CC1 [Example 87]	12.7 µM	50 µM	> 50 µM	1.14 µM							
CC(=O)N1CCC(C(=O)N2CCC(=C3c4ccc(Cl)cc4CCc4cccnc43)CC2)CC1 [Example 89]	6.3 µM	6.3 µM	> 25 µM	1.8 µM							
CC(C)(C(=O)N1CCN(C2c3ccc(Cl)cc3CCc3cccnc32)CC1)c1cccnc1 (stereo not drawn) [Example 198]	6.1 µM	12.5 µM	> 50 µM								
CN1CCC(CC(=O)N2CCN(C3c4ccc(Cl)cc4CCc4cccnc43)CC2)CC1 (stereo not drawn) [Example 201]	0.93 µM	3.1 µM	12.5 µM	1.4 µM							
CN1CCCC(CC(=O)N2CCN(C3c4ccc(Cl)cc4CCc4cccnc43)CC2)C1 (stereo not drawn) [Example 206]	2.4 µM	< 3.1 µM	16 µM	1.19 µM							
O=C(Cc1ccc[n+]([O-])c1)N1CCC(C2c3ccc(Cl)cc3CCc3cccnc32)CC1 (stereo not drawn) [Example 233]	10 µM	18 µM	> 50 µM	0.67 µM							

SMILES	IC50 ([1]; Primates, COS)	IC50 ([2]; Homo sapiens)	IC50 ([3]; Homo sapiens, Fibroblast)	IC50 [4, 5]	IC50 [2]	IC50 [1]	IC50 [3]	IC50 ([4]; FPT IC50, Ras-CVLS farnesylation, partially purified rat brain FPT)	IC50 ([1]; listed as 266 (5.138))	IC50 ([1]; listed as 285 (5.153))	IC50 ([4]; enzyme inhibition, read-out: FPT IC50)
COc1cnc2c(c1)CCc1cc(Cl)ccc1C2=C1CCN(C(=O)Cc2cccnc2)CC1 [Example 239, 4-(8-Chloro-3-methoxy-5,6-dihydro-11H-benzo[5,6]cyclohepta[1,2-b]pyridin-11-ylidene)-1-[(3-pyridinyl]acetyl]-piperidine]	4.6 µM	37 µM	> 50 µM	1.75 µM							
O=C(Cc1cccnc1)N1CCC(C2c3ccc(Cl)cc3C=Cc3cccnc32)CC1 (stereo not drawn) [Example 266]	0.77 µM	3.1 µM	6.25 µM					0.46 µM	0.89 µM		
O=C(Cc1ccncc1)N1CCC(C2c3ccc(Cl)cc3C=Cc3cccnc32)CC1 (stereo not drawn) [Example 269]	0.69 µM	6.25 µM	12.5 µM								
O=C(Cc1cccnc1)N1CCC(=C2c3ccc(Cl)cc3C=Cc3cccnc32)CC1 [Example 276]	2.9 µM	12.5 µM	50 µM	1.77 µM							
O=C1Cc2cc(Cl)ccc2C(=C2CCN(C(=O)Cc3ccncc3)CC2)c2ncccc21 [Example 281]	7 µM	4 µM	> 50 µM	2.9 µM							
O=C1Cc2cccnc2C(=C2CCN(C(=O)Cc3cccnc3)CC2)c2ccc(Cl)cc21 [Example 283]	5.6 µM	10 µM	> 50 µM	0.48 µM and 0.55 µM							
O=C1Cc2cccnc2C(=C2CCN(C(=O)Cc3ccncc3)CC2)c2ccc(Cl)cc21 [Example 285]	5.2 µM	12.5 µM	> 50 µM	0.76 µM						10.1 µM	
O=C(Cc1ccncc1)N1CCC(=C2c3ccc(Cl)cc3C(O)Cc3cccnc32)CC1 (stereo not drawn) [Example 286]	8.3 µM	25 µM	> 50 µM	1.5 µM							
O=C(Nc1ccccn1)N1CCC(=C2c3ccc(Cl)cc3CCc3cccnc32)CC1 [Example 294]	5.2 µM	18 µM	> 50 µM	2.11 µM		2.8 µM					
CC(C)(C(=O)N1CCC(=C2c3ccc(Cl)cc3CCc3cccnc32)CC1)c1cccnc1 [Example 300]	2.6 µM	< 3.1 µM	> 50 µM	0.96 µM							
CC(C)(C(=O)N1CCN(C2c3ccc(Cl)cc3CCc3cc(Br)cnc32)CC1)c1ccc[n+]([O-])c1 (stereo not drawn) [Example 352]	2.2 µM	1.6 µM	> 25 µM	0.74 µM and 0.38 µM							
CC(C)(C(=O)N1CCN(C2c3ccc(Cl)cc3CCc3cc(Br)cnc32)CC1)c1cccnc1 (stereo not drawn) [Example 353]	0.9 µM	6.25 µM	> 25 µM	0.76 µM and 0.3 µM							
O=C(Nc1cccnc1)N1CCC(C2c3ccccc3CCc3cccnc32)CC1 (stereo not drawn) [Example 365]				5 µM	6.25 µM	3.1 µM	> 50 µM				
O=C(Cc1cccnc1)N1CC=C(C2c3ccc(Cl)cc3CCc3cccnc32)CC1 (stereo not drawn) [Example 410-D]	18.5 µM	10 µM	> 50 µM								
O=C(Cc1ccncc1)N1CCN(C2c3ccc(Cl)cc3CCc3cc(Br)cnc32)CC1 (stereo not drawn) [Example 426]	0.38 µM		25 µM				> 12.5 µM				0.012 µM
